Experimental data taken from US9695155B2, “Herbicidal substituted pyrimidinyloxy benzene compounds” (E. I. DU PONT DE NEMOURS AND COMPANY, priority 2013, dated 2017).

Key:
galium = experiment: Test C preemergence; format: in vivo, Galium aparine; details: for Galium plant response rating: preemergence; for Plant response rating, Galium: Preemergence, scale 0 to 100, 0 no effect, 100 complete control
Excerpt: (§1) Seeds of plant species selected from blackgrass (Alopecurus myosuroides), Italian ryegrass (Lolium multiflorum), wheat, winter (winter wheat, Triticum aestivum), galium (catchweed bedstraw, Galium aparine), corn (Zea mays), large (Lg) crabgrass (Digitaria sanguinalis), giant foxtail (Setaria faberii), johnsongrass (Sorghum halepense), lambsquarters (Chenopodium album), morningglory (Ipomoea coccinea), yellow nutsedge (Cyperus esculentus), pigweed (Amaranthus retroflexus), ragweed (common ragweed, Ambrosia elatior), soybean (Glycine max), barnyardgrass (Echinochloa crus-galli), oilseed rape (Brassica napus), waterhemp (common waterhemp, Amaranthus rudis), kochia (Kochia scoparia), wild oat (Avena fatua), surinam grass (Brachiaria decumbens), foxtail, green (green foxtail, Setaria viridis), goosegrass (Eleusine indica), bromegrass, downy (downy bromegrass, Bromus tectorum), nightshade (eastern black nightshade, Solanum ptycanthum), cocklebur (common cocklebur, Xanthium strumarium), cupgrass, woolly (woolly cupgrass, Eriochloa villosa), bermudagrass (Cynodon dactylon), sunflower, (common oilseed sunflower, Helianthus annuus), Russian thistle (Salsola kali), and velvetleaf (Abutilon theophrasti) were planted into a blend of loam soil and sand and treated preemergence with test chemicals formulated in a non-phytotoxic solvent mixture which included a surfactant.
(§2) At the same time, plants selected from these crop and weed species and also barley, winter (winter barley, Hordeum vulgare), windgrass (Apera spica-venti), chickweed (common chickweed, Stellaria media), deadnettle (henbit deadnettle, Lamium amplexicaule), and canarygrass (littleseed canarygrass, Phalaris minor) were planted in pots containing Redi-Earth® planting medium (Scotts Company, 14111 Scottslawn Road, Marysville, Ohio 43041) comprising spaghnum peat moss, vermiculite, wetting agent and starter nutrients and treated with postemergence applications of test chemicals formulated in the same manner. Plants ranged in height from 2 to 18 cm (1- to 4-leaf stage) for postemergence treatments. Treated plants and controls were maintained in a greenhouse for 13 to 15 days, after which time all species were compared to controls and visually evaluated. Plant response ratings, summarized in Table C, are based on a scale of 0 to 100 where 0 is no effect and 100 is complete control. A dash (-) response means no test result.

barnyardgrass [1] = experiment: Test B flooded paddy test; format: in vivo, Echinochloa crus-galli; details: Flood, 250 g ai/ha; 0 to 100 scale where 0 is no effect and 100 is complete control
Outline: (§3)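 Scores from 0 (no effect) to 100 (complete control) are visual comparisons with controls, taken 13 to 15 days after compound was applied into floodwater 3 cm deep around 2-leaf plants.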

Heteranthera limosa = experiment: Test B flooded paddy test; format: in vivo; details: Flood, 250 g ai/ha; 0 to 100 scale where 0 is no effect and 100 is complete control
Outline: as §3

corn [2] = experiment: Test C preemergence; format: in vivo, Zea mays; details: for Corn plant response rating: preemergence; for Plant response rating, Corn: Preemergence, scale 0 to 100, 0 no effect, 100 complete control
Excerpt: as §1, §2

rice = experiment: Test B flooded paddy test; format: in vivo, Oryza sativa; details: Flood, 250 g ai/ha; 0 to 100 scale where 0 is no effect and 100 is complete control
Outline: as §3

corn [3] = experiment: Test A postemergence; format: in vivo, Zea mays
Outline: (§4)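 Visual 0–100 rating (100 = complete control) taken about 10 d post-treatment relative to untreated checks. Preemergence: directed soil spray on sown loam/sand pots. Postemergence: seedlings 2–10 cm, 1–2 leaf. Non-phytotoxic solvent formulation with surfactant.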

barnyardgrass [4] = experiment: Test A postemergence; format: in vivo, Echinochloa crus-galli
Outline: as §4

[5] = 16 g ai/ha, scale 0 to 100 (0 no effect, 100 complete control)
[6] = 62 g ai/ha, scale 0 (no effect) to 100 (complete control)
[7] = 125 g ai/ha, scale 0 (no effect) to 100 (complete control)
[8] = 125 g ai/ha, 0 to 100 scale where 0 is no effect and 100 is complete control
[9] = 500 g ai/ha, 0 to 100 scale where 0 is no effect and 100 is complete control
[10] = 31 g ai/ha, scale 0 to 100 (0 no effect, 100 complete control)
[11] = 125 g ai/ha, 0 to 100 scale, 0 no effect, 100 complete control

| Structure (SMILES) | Galium plant response rating (galium; [5]) | Galium plant response rating (galium; [7]) | Plant response rating, Barnyardgrass (barnyardgrass [1]) | Plant response rating, Ducksalad (Heteranthera limosa) | Corn plant response rating (corn [2]; [5]) | Corn plant response rating (corn [2]; [7]) | Plant response rating, Rice (rice) | Plant response rating, Corn (corn [3]; [9]) | Plant response rating, Barnyardgrass (barnyardgrass [4]; [9]) | other results |
| --- | --- | --- | --- | --- | --- | --- | --- | --- | --- | --- |
| FC(F)c1cccc(Oc2ncc(Cl)cn2)c1-n1cc(C(F)(F)F)cn1 [Compound 170] | 95 | 100 | 70 | 95 | 0 | 40 | 50 | 90 | 90 | Galium plant response rating (galium; [6]): 100; Plant response rating, Galium (galium; 31 g ai/ha): 98; Corn plant response rating (corn [2]; [6]): 15; Plant response rating, Corn (corn [2]; 31 g ai/ha): 5; Corn plant response rating (corn [3]; [8]): 80; Barnyardgrass plant response rating (barnyardgrass [4]; [8]): 70 |
| NC(=S)c1cccc(Oc2ncc(Cl)cn2)c1-n1cc(Cl)cn1 [Compound 292] | 80 | 100 | 20 | 45 | 0 | 45 | 20 | 80 | 90 | Galium plant response rating (galium; [10]): 98; Plant response rating, Galium (galium; 62 g ai/ha): 100; Corn plant response rating (corn [2]; [10]): 5; Plant response rating, Corn (corn [2]; 62 g ai/ha): 10; Plant response rating, Corn (corn [3]; [11]): 50; Plant response rating, Barnyardgrass (barnyardgrass [4]; [11]): 60 |
